Source: patent US20120145955A1, “COMPOSITION OF HCFO-1233zd AND POLYOL BLENDS FOR USE IN POLYURETHANE FOAM” (Arkema Inc., priority 2009, published 2012)
Like-named read-outs stand apart in the source and are kept apart here.

Columns and labels:
[1] = known to the people skilled in the art; cited from earlier work
[2] = Solubility experiments: vapor pressure of blowing agent in polyol in a pressure vessel; format: physicochemical
Procedure: The vapor pressure of a foam blowing agent in polyurethane materials was evaluated in an experimental apparatus consisting of a pressure vessel with magnetic stirring, a pressure transducer and a temperature transducer. The temperature inside the vessel was controlled within 0.1° C. and the pressure controlled to within 0.1%.
Into the pressure vessel (volume about 100 ml), 50 g of polyol was loaded. The vessel was then placed under vacuum to remove air. The change of pressure in the metal cylinder was monitored to ensure that there were no leaks. The blowing agent was introduced into the vessel by the use of a specially designed gas syringe. The amount of blowing agent loaded was verified by measuring the weight of the syringe before and after introduction. The temperature of the vessel was maintained at 50° C. (above the boiling point of the blowing agents being tested) and the speed of the shaker was maintained at 300 rpm. The vapor pressure of the blowing agent was recorded as a function of the time. Sufficient time was allowed for the system to reach equilibrium. After reaching equilibrium, the amount of blowing agent dissolved in the polyol was calculated as the difference between the added blowing agent […] and the blowing agent present in the gas phase of the vessel.
Then another small amount of blowing agent was added in the vessel. The procedure was repeated several times until the pressure in the vessel was equal to the liquid-gas equilibrium vapor pressure of the blowing agent at this temperature (maximum attainable pressure at temperatures below the critical temperature of the blowing agent).

[3] = AMES testing (genotoxicity); format: cell-based; conditions: trans isomer of HCFO-1233zd compared with the cis isomer

FC(F)CC(F)(F)F [HFC245fa]
solubility in polyols [1]: relatively less soluble

FC(F)(F)/C=C/Cl [HCFO-1233zd, trifluoro-monochloropropenes]
solubility in polyols ([2]; different ratios of polyether polyols and polyester polyols, benchmarked against HCFC141b and HFC245fa): falls in between HFC245fa and HCFC141b

FC(F)(F)/C=C/Cl [E-HCFO-1233zd]
genotoxicity in AMES testing [3]: significantly lower genotoxicity
area between the polyether polyol and polyester polyol curves (range of solubilities) ([2]; compared with HCFC141b and HFC245fa, 50° C.): significantly larger
solubility relative to current blowing agents ([2]; polyether polyol and polyester polyol, 50° C.): solubility comparable to current blowing agents
solubility curves (vapor pressure versus part of blowing agent per 100 part of polyol by weight) ([2]; polyether polyol and polyester polyol, 50° C., FIG. 1): between those for HFC245fa and HCFC141b
